Source: patent publication US9896445B2, “Heterocyclic inhibitors of ERK1 and ERK2 and their use in the treatment of cancer” (Asana Biosciences, LLC, priority 2015, dated 2018)

Assays:
[1] = molecular target: T1, ERK1 (Homo sapiens, UniProt P27361); experiment: ERK1 HTRF (biochemical) assay
T1 construct: purchased Jubilant Biosys
Method: ERK1 and ERK2 HTRF (Biochemical) Assays
These assays employed a homogeneous time resolved fluorescence (HTRF) technique. […] The plate was incubated at room temperature for 60 min with shaking. […] The IC50 values (half maximal inhibitory concentration values) were subsequently determined using a sigmoidal dose-response curve (variable slope) in GraphPad Prism® 5 software.

[2] = molecular target: T2, ERK2 (Homo sapiens, UniProt P28482); experiment: ERK2 HTRF (biochemical) assay
T2 construct: purchased Jubilant Biosys
T2 sequence (P28482 whole entry): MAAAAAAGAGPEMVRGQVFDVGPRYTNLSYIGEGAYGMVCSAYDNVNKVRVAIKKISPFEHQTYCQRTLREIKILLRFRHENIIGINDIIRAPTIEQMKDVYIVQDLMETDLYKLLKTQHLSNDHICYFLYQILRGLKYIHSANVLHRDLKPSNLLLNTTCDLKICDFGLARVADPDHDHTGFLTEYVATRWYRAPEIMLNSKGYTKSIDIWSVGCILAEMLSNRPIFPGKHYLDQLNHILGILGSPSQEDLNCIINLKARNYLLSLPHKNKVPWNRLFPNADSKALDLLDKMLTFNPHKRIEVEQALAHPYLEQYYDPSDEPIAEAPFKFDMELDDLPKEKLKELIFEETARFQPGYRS
Outline: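 Compounds were tested as half-log dilutions from 0.0005 to 10 uM in Tris pH 7.5/MgCl2 buffer, with a substrate mix of 1 uM biotin-MBP peptide and 24 uM ATP and an enzyme mix of 25 nM ERK2. Reaction ran 60 min at room temperature. Phospho-MBP was detected by HTRF (Eu-anti-phospho-MBP/SA-APC, 665/620 nm), and IC50 was fitted with a variable-slope sigmoidal curve.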

T1 sequence (P27361 whole entry): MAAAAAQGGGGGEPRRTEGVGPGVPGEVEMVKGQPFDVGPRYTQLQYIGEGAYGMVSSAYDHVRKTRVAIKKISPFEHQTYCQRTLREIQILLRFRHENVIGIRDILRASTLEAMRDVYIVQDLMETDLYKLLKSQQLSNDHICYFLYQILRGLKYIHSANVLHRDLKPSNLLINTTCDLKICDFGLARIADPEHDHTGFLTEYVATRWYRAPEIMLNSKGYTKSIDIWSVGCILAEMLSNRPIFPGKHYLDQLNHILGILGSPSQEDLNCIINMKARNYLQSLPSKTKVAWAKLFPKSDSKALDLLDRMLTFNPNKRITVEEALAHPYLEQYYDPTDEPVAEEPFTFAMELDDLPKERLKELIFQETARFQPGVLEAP

Compound	IC50 ([1]; HTRF)	IC50 ([2]; HTRF)	IC50 ([1]; HTRF biochemical assay)	IC50 ([2]; HTRF biochemical assay)
COc1cc(Nc2ncc(C)c(-n3ccc(C(=O)NC(CO)c4ccccc4)c3)n2)cc(OC)c1OC (stereo not drawn) [Compound 121, N-(2-hydroxy-1-phenylethyl)-1-(5-methyl-2-((3,4,5-trimethoxyphenyl)amino)pyrimidin-4-yl)-1H-pyrrole-3-carboxamide]	< 50 nM	≤ 50 nM	–	–
O=C(Nc1cnn(-c2ccnc(Nc3ccc4c(c3)OCO4)n2)c1)N[C@H](CO)c1cccc(Cl)c1 [Compound 21, (S)-1-(1-(2-(benzo[d][1,3]dioxol-5-ylamino)-pyrimidin-4-yl)-1H-pyrazol-4-yl)-3-(1-(3-chlorophenyl)-2-hydroxyethyl)urea]	< 50 nM	≤ 50 nM	–	–
COc1cnc(Nc2ccc(F)cc2Cl)nc1-n1ccc(C(=O)NC(CO)c2ccccc2)c1 (stereo not drawn) [Compound 129, 1-(2-((2-chloro-4-fluorophenyl)amino)-5-methoxy-pyrimidin-4-yl)-N-(2-hydroxy-1-phenylethyl)-1H-pyrrole-3-carboxamide]	< 50 nM	≤ 50 nM	–	–
O=C(NC(CO)c1cccc(Cl)c1)c1ccn(-c2ccnc(Nc3ccc4c(c3)OC(F)(F)O4)n2)c1 (stereo not drawn) [Compound 176, N-(1-(3-chloro-phenyl)-2-hydroxyethyl)-1-(2-((2,2-difluoro-benzo[d][1,3]dioxol-5-yl)amino)-pyrimidin-4-yl)-1H-pyrrole-3-carboxamide]	< 50 nM	≤ 50 nM	–	–
O=C(N[C@H](CO)c1cccc(Cl)c1)c1cnn(-c2ccnc(Nc3ccccc3)n2)c1 [Compound 53, (S)-N-(1-(3-chlorophenyl)-2-hydroxyethyl)-1-(2-(phenylamino)pyrimidin-4-yl)-1H-pyrazole-4-carboxamide]	100 to 500 nM	100 to 500 nM	–	–
Cc1cnc(Nc2ccc3c(c2)OC(F)(F)O3)cc1-n1ccc(C(=O)NC(CO)c2ccccc2)c1 (stereo not drawn) [Compound 80, 1-(2-((2,2-difluorobenzo[d] [1,3]dioxol-5-yl)-amino)-5-methyl-pyridin-4-yl)-N-(2-hydroxy-1-phenyl-ethyl)-1H-pyrrole-3-carboxamide]	< 50 nM	≤ 50 nM	–	–
Cc1cnc(Nc2ccc3c(c2)OCC3)nc1-n1ccc(C(=O)NC(CO)c2ccccc2)c1 (stereo not drawn) [Compound 185]	< 50 nM	≤ 50 nM	–	–
CC(C)C[C@H](CO)Nc1nccc(-n2cc(NC(=O)N[C@H](CO)c3cccc(Cl)c3)cn2)n1 [Compound 13, 1-((S)-1-(3-chlorophenyl)-2-hydroxyethyl)-3-(1-(2-(((R)-1-hydroxy-4-methylpentan-2-yl)amino)pyrimidin-4-yl)-1H-pyrazol-4-yl)urea]	100 to 500 nM	100 to 500 nM	–	–
Cc1cnc(Nc2ccc(F)cc2Cl)cc1-n1cnc(C(=O)NC(CO)c2ccccc2)c1 (stereo not drawn) [Compound 85, 1-(2-((2-chloro-4-fluorophenyl)amino)-5-methylpyridin-4-yl)-N-(2-hydroxy-1-phenylethyl)-1H-imidazole-4-carboxamide]	100 to 500 nM	100 to 500 nM	–	–

Continued, values first:

IC50 ([1]; HTRF)	IC50 ([2]; HTRF)	IC50 ([1]; HTRF biochemical assay)	IC50 ([2]; HTRF biochemical assay)	Compound
< 50 nM	≤ 50 nM	–	–	Cc1cnc(Nc2ccc(F)c(C(=O)N(C)C)c2)nc1-n1ccc(C(=O)NC(CO)c2cccc(Cl)c2)c1 (stereo not drawn) [Compound 194, N-(1-(3-chloro-phenyl)-2-hydroxyethyl)-1-(2-((3-(dimethyl-carbamoyl)-4-fluorophenyl)amino)-5-methyl-pyrimidin-4-yl)-1H-pyrrole-3-carboxamide]
–	–	< 50 nM	≤ 50 nM	Cc1cnc(Nc2ccc3c(c2)OC(F)(F)O3)nc1-n1cnc(C(=O)NCc2cccc(Cl)c2CO)c1 [Example 332, N-(3-chloro-2-(hydroxymethyl)-benzyl)-1-(2-((2,2-difluorobenzo[d] [1,3]dioxol-5-yl)amino)-5-methylpyrimidin-4-yl)-1H-imidazole-4-carboxamide]
100 to 500 nM	50 to 100 nM	–	–	O=C(Nc1cnn(-c2ccnc(NC3CC3)n2)c1)NC(CO)c1cccc(Cl)c1 (stereo not drawn) [Compound 16, 1-(1-(3-chlorophenyl)-2-hydroxyethyl)-3-(1-(2-(cyclopropyl-amino)pyrimidin-4-yl)-1H-pyrazol-4-yl)urea]
< 50 nM	≤ 50 nM	–	–	Cc1cnc(NC2CCCOC2)nc1-n1ccc(C(=O)N[C@H](CO)c2cccc(Cl)c2)c1 (stereo partly drawn) [Compound 152, N-((S)-1-(3-chlorophenyl)-2-hydroxyethyl)-1-(5-methyl-2-((tetrahydro-2H-pyran-3-yl)amino)pyrimidin-4-yl)-1H-pyrrole-3-carboxamide]
< 50 nM	≤ 50 nM	–	–	CC[C@@H](CO)Nc1ncc(C)c(-n2cnc(C(=O)N[C@H](CO)c3cccc(Cl)c3)c2)n1 [Compound 220, N-((S)-1-(3-chlorophenyl)-2-hydroxyethyl)-1-(2-(((S)-1-hydroxy-butan-2-yl)amino)-5-methylpyrimidin-4-yl)-1H-imidazole-4-carboxamide]
< 50 nM	≤ 50 nM	–	–	Cc1cnc(NC2CCC(F)(F)CC2)nc1-n1cnc(C(=O)N[C@H](CO)c2cccc(Cl)c2)c1 [Compound 240, (S)-N-(1-(3-chlorophenyl)-2-hydroxyethyl)-1-(2-((4,4-difluorocyclo-hexyl)amino)-5-methylpyrimidin-4-yl)-1H-imidazole-4-carboxamide]
–	–	< 50 nM	≤ 50 nM	Cc1cnc(NC2CCOCC2)nc1-n1cnc(C(=O)N[C@H](CNCC(C)(C)C)c2cccc(Cl)c2)c1 [Example 337, (S)-N-(1-(3-chlorophenyl)-2-(neopentylamino)-ethyl)-1-(5-methyl-2-((tetrahydro-2H-pyran-4-yl)amino)-pyrimidin-4-yl)-1H-imidazole-4-carboxamide]
< 50 nM	≤ 50 nM	–	–	Cc1cnc(Nc2ccc(N3CCOCC3)cc2)nc1-n1ccc(C(=O)NC(CO)c2cccc(Cl)c2)c1 (stereo not drawn) [Compound 205, N-(1-(3-chlorophenyl)-2-hydroxyethyl)-1-(5-methyl-2-((4-morpholinophenyl)amino)pyrimidin-4-yl)-1H-pyrrole-3-carboxamide]
< 50 nM	≤ 50 nM	–	–	Cc1cnc(N[C@@H]2CCOC2)nc1-n1cnc(C(=O)N[C@H](CN)c2cccc(Cl)c2)c1 [Example 264, N-((S)-2-amino-1-(3-chlorophenyl)-ethyl)-1-(5-methyl-2-(((R)-tetrahydrofuran-3-yl)amino)pyrimidin-4-yl)-1H-imidazole-4-carboxamide]
< 50 nM	≤ 50 nM	–	–	Cc1cnc(Nc2cccnc2)nc1-n1cc(NC(=O)N[C@H](CO)c2cccc(Cl)c2)cn1 [Compound 23, (S)-1-(1-(3-chlorophenyl)-2-hydroxyethyl)-3-(1-(5-methyl-2-(pyridin-3-yl-amino)pyrimidin-4-yl)-1H-pyrazol-4-yl)urea]
50 to 100 nM	≤ 50 nM	–	–	Cc1cnc(Nc2ccc(F)cc2)nc1-n1cnc(C(=O)NC(CO)c2ccccc2)c1 (stereo not drawn) [Compound 118, 1-(2-((4-fluoro-phenyl)amino)-5-methylpyrimidin-4-yl)-N-(2-hydroxy-1-phenylethyl)-1H-imidazole-4-carboxamide]
< 50 nM	≤ 50 nM	–	–	Cc1cnc(NC2CCOCC2)nc1-n1cnc(C(=O)NCc2cccc(Cl)c2CO)c1 [Compound 93, N-(3-chloro-2-(hydroxymethyl)benzyl)-1-(5-methyl-2-((tetrahydro-2H-pyran-4-yl)amino)pyrimidin-4-yl)-1H-imidazole-4-carboxamide]
